Assay results: paper PMC10362946 (Diabetes, obesity & metabolism, 2022)

Experiments:
gubra DIO rats = conditions: gubra choice DIO model; cited from earlier work
in vivo [1] = experiment: in vivo; parameters: species or system Crl:CD1(ICR) mice; conditions: mouse, sc
in vivo [2] = experiment: in vivo; parameters: species or system sprague dawley rats; conditions: rat, sc; for AUC(0-t) / CL/F / Cmax / Tmax / half-life: female, Sprague Dawley
[3] = both, Crl:CD1(ICR) (CD-1), 625 nmol/kg

In the case of “liraglutide (HAEGTFTSDVSSYLEGQAAKEFIAWLVRGRG; chains of the INN, looked up)”, the “cumulative chow intake compared to controls” value (gubra DIO rats) is given as “approximately doubled” and the “decrease of cumulative gubra diet intake compared to controls” value (gubra DIO rats) is given as “approximately 60%”.

Work on `CC[C@H](C)[C@H](NC(=O)[C@H](CC(C)C)NC(=O)[C@H](Cc1c[nH]c2ccccc12)NC(=O)[C@H](CCC(N)=O)NC(=O)[C@@H](NC(=O)[C@H](Cc1ccccc1)NC(=O)[C@H](C)NC(=O)[C@H](CCCCNC(=O)COCCOCCNC(=O)COCCOCCNC(=O)CC[C@H](NC(=O)CCCCCCCCCCCCCCCCCCC(=O)O)C(=O)O)NC(=O)[C@H](CCC(N)=O)NC(=O)[C@H](C)NC(=O)[C@@H](NC(=O)[C@H](CCCCN)NC(=O)[C@H](CC(=O)O)NC(=O)[C@H](CC(C)C)NC(=O)C(C)(C)NC(=O)[C@@H](NC(=O)[C@H](CO)NC(=O)[C@H](Cc1ccc(O)cc1)NC(=O)[C@H](CC(=O)O)NC(=O)[C@H](CO)NC(=O)[C@@H](NC(=O)[C@H](Cc1ccccc1)NC(=O)[C@@H](NC(=O)CNC(=O)[C@H](CCC(=O)O)NC(=O)C(C)(C)NC(=O)[C@@H](N)Cc1ccc(O)cc1)[C@@H](C)O)[C@@H](C)O)[C@@H](C)CC)[C@@H](C)CC)C(C)C)C(=O)N[C@@H](C)C(=O)NCC(=O)NCC(=O)N1CCC[C@H]1C(=O)N[C@@H](CO)C(=O)N[C@@H](CO)C(=O)NCC(=O)N[C@@H](C)C(=O)N1CCC[C@H]1C(=O)N1CCC[C@H]1C(=O)N1CCC[C@H]1C(=O)N[C@@H](CO)C(N)=O` [tirzepatide] yielded an AUC(0-inf) (in vivo [1]; [3]) of 71.7 µM·h, a CL/F (in vivo [1]; [3]) of 0.145 mL/min/kg and a Cmax (in vivo [1]; [3]) of 2540 nM. For the same compound, the Tmax (in vivo [1]; [3]) was 12 h, the half-life (in vivo [1]; [3]) was 11.9 h and the “T1/2 (elimination half-life)” value (in vivo [1]) was “approximately 12 hr”. For the same compound, the AUC(0-t) (in vivo [2]; 31 nmol/kg) was 3.74 µM·h, the CL/F (in vivo [2]; 31 nmol/kg) was 0.139 mL/min/kg and the Cmax (in vivo [2]; 31 nmol/kg) was 127 nM. The Tmax (in vivo [2]; 31 nmol/kg) was 12 h, the half-life (in vivo [2]; 31 nmol/kg) was 9.3 h and the AUC(0-t) (in vivo [2]; 104 nmol/kg) was 10 µM·h. For the same compound, the CL/F (in vivo [2]; 104 nmol/kg) was 0.172 mL/min/kg, the Cmax (in vivo [2]; 104 nmol/kg) was 310 nM and the Tmax (in vivo [2]; 104 nmol/kg) was 12 h. For the same compound, the half-life (in vivo [2]; 104 nmol/kg) was 10.3 h and the T1/2 (in vivo [2]) was 10.3 h.
